Source: patent US20140066385A1, “METHOD FOR TREATING CANCER BY COMBINED USE OF DRUGS” (Astellas Pharma Inc., priority 2011, published 2014)

Legend:
[1] = biological target: T1, purified pig brain-derived tubulin (Sus scrofa, UniProt P02550+P02554); test: Example 7: fluorescence-based assay of tubulin polymerization reaction; type: biochemical; details: paclitaxel final concentration 3 μmmol/L; 60 minutes after initiation; P<0.05
T1 construct: purified pig brain-derived tubulin (final concentration: 2 mg/mL); purchased Cytoskeleton, Inc. (Denver, Colo., USA); host or cells: pig brain (tissue-purified)
Experimental: S-nitroso-N-acetyl-D,L-penicillamine (SNAP), which is a NO donor, was purchased from Cayman Chemical Co. (Ann Arbor, Mich., USA) and used. A tubulin polymerization analysis kit was purchased from Cytoskeleton, Inc. (Denver, Colo., USA) and used. For paclitaxel, a paclitaxel included in the analysis kit was used as paclitaxel. Docetaxel was purchased from Sigma-Aldrich Co. (St. Louis, Mo., USA) and was used as docetaxel.
A fluorescence-based assay of tubulin polymerization reaction was carried out according to the manufacturer's instruction of the kit. That is, purified pig brain-derived tubulin (final concentration: 2 mg/mL) and SNAP (final concentration: 200 or 500 μmol/L) were incubated at room temperature for 15 minutes or longer in the buffer solution included in the kit. Subsequently, paclitaxel (final concentration: 3 μmmol/L) or docetaxel (final concentration: 1 μmol/L), and […] (final concentration: 1 mmol/L) were added to this buffer mixture, and then was incubated for 60 minutes at 37° C. During this incubation, the fluorescence intensity (measurement wavelength: excitation 350 nm/fluorescence 435 nm) was measured every one minute by using a microplate reader (Spectramax, Molecular Devices, LLC, Sunnyvale, Calif., USA). The value of fluorescence intensity was expressed as a percentage relative to the SNAP and taxane-untreated group by using the value obtained 60 minutes after the initiation of the reaction, which corresponded to the equilibrium steady-state phase, and the average value for three experiments was taken as the value.
The results are expressed as the mean value (Mean)±standard error (SEM) of five independent experiments. A comparison between a paclitaxel- or docetaxel-treated group and an untreated group was carried out by an unpaired statistical test (Student's t-test) of the difference between two groups. A comparison between a SNAP-untreated group (control group) and SNAP-treated groups (200 μmol/L and 500 μmol/L) in the presence or absence of the taxane-family drugs was carried out by Dunnett's multiple comparison test. A difference value of less than 5% was considered to be statistically significant. For the data processing, Graphpad Prism version 5.03 was used.

[2] = tested on: human ovarian cancer (MCAS); test: Example 12: FK330 with paclitaxel in MCAS tumor-bearing mice; type: in vivo, nude mice; details: FK330 100 mg/kg bid p.o. + paclitaxel 10 mg/kg/day i.v. (5 days each cycle)
Experimental: The dose of FK330 is expressed in terms of the weight of a simple substance (non-hydrate). Paclitaxel was purchased from LC Laboratories, Inc. (Woburn, Mass., USA), and was used as paclitaxel.
FK330 was suspended (20 mg/mL) in a 0.5% aqueous methyl cellulose solution (0.5% MC), and was orally administered. Paclitaxel was prepared into a stock solution at 10 mg/mL with an ethanol/cremophor solution (mixed at 1:1), and then the stock solution was diluted to 1 mg/mL with physiological saline for injection (Otsuka Pharmaceutical Group) immediately before administration and was intravenously administered through the tail vein.
Human ovary cancer-derived MCAS (JCRB0240) was obtained from Health Science Research Resources Bank (HSRRB) and used. The cells were cultured under the conditions of 37° C. and 5% CO2 by using EMEM medium containing 20% fetal bovine serum (FBS). […]
The body weight and the tumor diameter, determined by using a digital caliper, were measured twice a week. The tumor volume was calculated from the calculation formula for ellipsoid volume of (major axis×[minor axis]^2×0.5).
The results are expressed as the mean value (Mean)±standard error (SEM). […]

T1 sequence (P02554 whole entry): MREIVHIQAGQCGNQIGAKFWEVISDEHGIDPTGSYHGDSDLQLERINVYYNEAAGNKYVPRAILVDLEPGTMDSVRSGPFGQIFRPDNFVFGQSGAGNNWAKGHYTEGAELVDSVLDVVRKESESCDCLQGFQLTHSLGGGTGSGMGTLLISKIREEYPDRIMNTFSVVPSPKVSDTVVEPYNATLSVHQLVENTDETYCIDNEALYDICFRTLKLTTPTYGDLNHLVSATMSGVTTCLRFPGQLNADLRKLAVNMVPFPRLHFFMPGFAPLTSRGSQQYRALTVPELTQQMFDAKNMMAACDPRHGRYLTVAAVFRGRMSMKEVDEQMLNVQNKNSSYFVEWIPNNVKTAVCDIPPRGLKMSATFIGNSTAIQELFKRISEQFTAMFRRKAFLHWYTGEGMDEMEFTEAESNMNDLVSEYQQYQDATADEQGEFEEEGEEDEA
T1 sequence (P02550 whole entry): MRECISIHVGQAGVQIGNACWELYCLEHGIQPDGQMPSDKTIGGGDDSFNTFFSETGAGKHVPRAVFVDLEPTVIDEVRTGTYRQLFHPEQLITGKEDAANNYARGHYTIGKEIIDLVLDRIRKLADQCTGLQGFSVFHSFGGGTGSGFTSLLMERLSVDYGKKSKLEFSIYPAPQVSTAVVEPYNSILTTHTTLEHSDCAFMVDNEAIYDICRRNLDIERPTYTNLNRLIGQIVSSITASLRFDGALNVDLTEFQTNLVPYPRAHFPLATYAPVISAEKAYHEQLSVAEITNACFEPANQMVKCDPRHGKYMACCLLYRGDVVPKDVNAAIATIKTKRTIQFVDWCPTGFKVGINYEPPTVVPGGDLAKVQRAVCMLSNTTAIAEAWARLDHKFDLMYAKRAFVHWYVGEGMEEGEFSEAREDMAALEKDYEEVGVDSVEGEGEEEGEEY

**Q.** With `CC(=O)O[C@H]1C(=O)[C@@]2(C)[C@H]([C@H](OC(=O)c3ccccc3)[C@]3(O)C[C@H](OC(=O)[C@H](O)[C@@H](NC(=O)c4ccccc4)c4ccccc4)C(C)=C1C3(C)C)[C@]1(OC(C)=O)CO[C@@H]1C[C@@H]2O` [paclitaxel, reference compound] as the compound, how does the “tubulin polymerization (fluorescence intensity) as compared with the taxane-untreated group” value [1] read?
**A.** 152.7%

**Q.** With `O=C(/C=C/c1ccc(Cl)cc1)N[C@@H](Cc1ccccn1)C(=O)NCC(=O)N1CCC(Oc2cc(C(F)(F)F)ncn2)CC1` [FK330, N^2-[(2E)-3-(4-chlorophenyl)-2-propenoyl]-N-[2-oxo-2-(4-{[6-(trifluoromethyl)pyrimidin-4-yl]oxy}piperidin-1-yl)ethyl]-3-pyridin-2-yl-L-alaninamide] as the compound, how does the “tumor volume reduction ratio compared with the paclitaxel-only group” value ([2]; Day 63, no significant difference) read?
**A.** 61.5%

**Q.** What about the “tumor volume reduction ratio compared with the paclitaxel-only group” value ([2]; Day 91, P<0.05) of the same compound?
**A.** 86.0%
